Consider 18 compounds from US8735423B2, “Bicyclic compounds as α4β2 nicotinic acetylcholine receptor ligands” (priority 2009, dated 2014).

SMILES strings stand for the structures. Where a name gives a salt, the structure may show the parent alone. Read-outs that look alike come from different tables or passages of the source.

Series [1] deals with T1, recombinant human α4β2 nicotinic acetylcholine receptor (Homo sapiens, UniProt P17787+P43681).
T1 construct: expressed in transfected cells
Nature of the series: Determination of IC50 and Kb values, aequorin luminescence assay in CHO cells. The format is cell-based. On the procedure:
Determination of IC50 and Kb Values for Nicotinic Acetylcholine α4β2 Receptor Ligands
A stable CHO cell line expressing recombinant human α4β2 nicotinic acetylcholine receptor transiently expressing aequorin protein was used for cell-based assay. The assay offers a non-radioactive based approach to determine binding of a compound to ligand gated ion channels. In this specific assay, the level of intracellular calcium which is modulated by activation or inhibition of the channel is measured. Both the channel and aequorin genes are expressed at high level under the control of powerful CMV promotor.
The above cells were grown in 96 well clear bottom white plates in Hams F12 medium containing 10% fetal bovine serum (FBS). Prior to the addition of compounds and/or agonist, cells were serum starved for six hours. Coelentarazine (a prosthetic group for aequorin protein) was added in the medium containing 0.1% dialyzed serum and incubated overnight at 27° C. Cells were washed with assay buffer and increasing concentration of the test compound or standard were added to the plate for antagonist mode. A fixed concentration of the agonist (eipbatidine) was injected into the plate and luminescence was measured for 10 seconds. For evaluation of the compound in agonist mode, increasing concentration of the standard or test compound was injected and the luminescence was measured. Luminescence units were plotted against the compound concentrations using Graphpad software. IC50 values of the compounds were defined as the concentration required in reducing the luminescent units by 50%. The Kb values were calculated by feeding the concentration of the agonist used in the assay and its EC50 value in the same software.
Literature References: Karadsheh M. S., Shah M. S., Tang X., Macdonald R. L. and Stitzel J. A. Functional characterization of mouse α4β2 nicotinic acetylcholine receptors stably expressed in HEK293T cells. J. Neurochem. 2004, 91, 1138-1150.

Series [2] deals with Human or Rat Nicotinic Acetylcholine α4β2 receptor (UniProt P09483+P12390). Nature of the series: Binding assay for Human or Rat Nicotinic Acetylcholine α4β2 receptor ([3H] Cytisine). As to conditions: [3H] Cytisine 2.5 nM, rat brain frontal cortex or recombinant human cDNA expressed in CHO cells. On the procedure:
Binding assay for Human or Rat Nicotinic Acetylcholine α4β2 receptor
Compounds can be evaluated according to the following procedures.
Materials and Methods: • Receptor source: Rat brain frontal cortex or recombinant human cDNA expressed in CHO cells • Radioligand: [^3H] Cytisine 15-40 Ci/mmol • Final ligand concentration—[2.5 nM] • Non-specific determinant: Epibatidine-[0.1 μM] • Reference compound: Epibatidine • Positive control: Epibatidine Incubation Conditions:
Increasing concentrations of test compounds or standard were incubated with membrane receptors and radioligand in 120 mM NaCl, 2.5 mM KCl, 1 mM CaCl2, 1 mM MgCl2 and 50 mM TRIS-HCl (pH 7.4) for 60 minutes at room temperature. The reaction was terminated by rapid vacuum filtration onto the glass fiber filters. Radioactivity trapped onto the filters was determined and compared to the control values in order to ascertain any interactions of the test compound(s) with either cloned human or rat receptor binding site.
Literature Reference: Bunnelle W. H., Daanen J. F., Ryther K. B., Schrimpf M. R., Dart M. J., Gelain A., Meyer M. D., Frost J. M., Anderson D. J., Buckley M., Curzon P., Cao Y-J., Puttfarcken P., Searle X., Ji J., Putman C. B., Surowy C., Toma L. and Barlocco D. Structure-Activity Studies and Analgesic Efficacy of N-(3-Pyridinyl)-Bridged Bicyclic Diamines, Exceptionally Potent Agonists at Nicotinic Acetylcholine Receptors. J. Med. Chem. 2007, 50, […].

Series [3] in a line: Rodent Pharmacokinetic Study. Particulars: Wistar, in vivo, Wister rat male; for AUC(0-t) / Cmax / Tmax / half-life: 5 mg/kg; for bioavailability: P.O 5 mg/kg vs I.V 5 mg/kg. As to the method: Rodent Pharmacokinetic Study
Male wistar rats (230-280 grams) obtained from NIN (National Institute of Nutrition, Hyderabad, India) were used as an experimental animal. Three to five animals were housed in each cage. Animals were kept fasted over night and maintained on a 12 hours light/dark cycle. […]
At each time point blood was collected by jugular vein. Plasma was stored frozen at −20° C. until analysis. The concentrations of the NCE compound in plasma were determined using LC-MS/MS method. Schedule time points: Pre dose 0.25, 0.5, 1, 1.5, 2, 3, 4, 6, 8, 10, 12 and 24 hours after dosing (n=3). The NCE compounds were quantified in plasma by validated LC-MS/MS method using solid phase extraction technique. NCE compounds were quantified in the calibration range of 1-2000 ng/mL in plasma. Study samples were analyzed using calibration samples in the batch and quality control samples spread across the batch. Pharmacokinetic parameters Cmax, Tmax, AUCs, T112 and Bioavailability were calculated by non-compartmental model using software WinNonlin version 5.0.1.

Series [4] in a line: Rodent Brain Penetration Study. As to conditions: in vivo; Wistar rat male, P.O, 5 mg/kg; read-out: Steady State Brain Penetration (Cb/Cp). As to the method:
Rodent Brain Penetration Study
Male Wistar rats (230-280 grams) obtained from NIN (National Institute of Nutrition, Hyderabad, India) was used as an experimental animal. Three animals were housed in each cage. Animals were given water and food ad libitum throughout the experiment, and maintained on a 12 hours light/dark cycle.
NCE compound was dissolved in water and administered orally. At Tmax (0.5, 1.0 and 2.0) animals were sacrificed to collect the plasma and brain tissue and was homogenized. Plasma and Brain was stored frozen at −20° C. until analysis. The concentrations of the NCE compound in plasma and Brain were determined using LC-MS/MS method.
The NCE compounds were quantified in plasma and brain homogenate by validated LC-MS/MS method using solid phase extraction technique. NCE compounds were quantified in the calibration range of 1-500 ng/mL in plasma and brain homogenate. Study samples were analyzed using calibration samples in the batch and quality control samples spread across the batch. Extents of brain-blood ratio were calculated (Cb/Cp).

Series [5] relates to Male Wister rats. Nature of the series: Reversal of Formalin Induced Nociception. The format is in vivo. Particulars: rat, p.o., formalin 5% v/v subplantar. As to the method: Reversal of Formalin Induced Nociception
The anti-nociceptive properties of compounds of this invention were evaluated using a model of pain: the Formalin Induced Nociception model. Male Wister rats (230-280 grams) obtained from N. I. N. (National Institute of Nutrition, Hyderabad, India) was used as experimental animals.
Rats were habituated for 20 minutes in the arena before the experiment was started. Duration of licks, bites and flinches were noted from 0-10 minutes and 20-35 minutes after administration of formalin, subplantar into the right hind paw at concentrations of 5% v/v. 50 μL of water for injection was injected into the right hind paw of the rats of the sham group. Compounds of this invention were administered orally prior to formalin administration.

Setting [6] is: antagonist mode, fixed concentration of agonist epibatidine, CHO cells, luminescence, read-out: Kb.

T1 sequence (P43681 29-627): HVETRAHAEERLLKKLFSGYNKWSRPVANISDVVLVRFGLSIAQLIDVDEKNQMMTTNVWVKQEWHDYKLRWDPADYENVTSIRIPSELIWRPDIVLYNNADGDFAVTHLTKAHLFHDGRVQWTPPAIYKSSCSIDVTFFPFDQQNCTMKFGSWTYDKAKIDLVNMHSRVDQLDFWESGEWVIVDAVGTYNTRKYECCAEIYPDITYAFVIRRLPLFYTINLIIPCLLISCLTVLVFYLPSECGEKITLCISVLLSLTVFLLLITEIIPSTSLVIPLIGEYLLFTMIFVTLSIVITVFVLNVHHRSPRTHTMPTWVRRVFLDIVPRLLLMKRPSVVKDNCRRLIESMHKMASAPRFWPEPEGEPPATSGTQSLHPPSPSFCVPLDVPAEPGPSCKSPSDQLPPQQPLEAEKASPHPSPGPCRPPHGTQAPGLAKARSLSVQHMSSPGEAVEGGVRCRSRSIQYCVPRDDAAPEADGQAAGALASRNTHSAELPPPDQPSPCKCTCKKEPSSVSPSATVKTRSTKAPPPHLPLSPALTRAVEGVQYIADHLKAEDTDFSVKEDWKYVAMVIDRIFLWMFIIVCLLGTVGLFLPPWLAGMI
T1 sequence (P17787 26-502): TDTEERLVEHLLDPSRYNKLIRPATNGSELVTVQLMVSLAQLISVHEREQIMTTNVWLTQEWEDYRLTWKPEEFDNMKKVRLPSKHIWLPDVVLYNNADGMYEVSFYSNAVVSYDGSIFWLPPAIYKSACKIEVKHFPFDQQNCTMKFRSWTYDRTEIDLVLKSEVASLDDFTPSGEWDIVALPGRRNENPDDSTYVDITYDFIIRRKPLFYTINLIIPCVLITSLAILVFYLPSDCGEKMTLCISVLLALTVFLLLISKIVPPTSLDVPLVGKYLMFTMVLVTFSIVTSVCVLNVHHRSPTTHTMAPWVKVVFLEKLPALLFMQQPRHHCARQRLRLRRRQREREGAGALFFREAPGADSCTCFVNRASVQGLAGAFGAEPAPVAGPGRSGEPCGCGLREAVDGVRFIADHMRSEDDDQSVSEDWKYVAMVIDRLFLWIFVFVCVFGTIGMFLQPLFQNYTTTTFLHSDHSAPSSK

What is called Ki is a measure of affinity in units of concentration, obtained from inhibition or displacement. With `CN1C(COc2cccnc2)CC2CC21` (centres unmarked) [Example 2, 2-Methyl-3-(pyridin-3-yloxymethyl)-2-azabicyclo[3.1.0]hexane], in series [1], the Kb turned out to be 0.4 nM. The Ki in series [2] (read-out: Ki) was 5.5 nM.

In the case of `Cc1ncccc1OCC1CC2CC2N1` (centres unmarked) [Example 3, 3-(2-Methylpyridin-3-yl-oxymethyl)-2-azabicyclo[3.1.0]hexane dihydrochloride], in series [2] (read-out: Ki), the Ki is 1000 nM.

For orientation: AUC(0-t) means exposure summed from dosing to a finite time, without extrapolation to infinity. The low end stands for less exposure, the high end for more exposure. The Cmax is the peak of the concentration-time curve. The term Tmax denotes the time from dosing to the highest level. One may read the half-life as the time in which the quantity being followed falls by half. A low value points to rapid decline. Broadly, the bioavailability is dose-corrected exposure relative to a reference, in per cent. As for `Cl.Cl.Clc1ncccc1OCC1CC2CC2N1` (centres unmarked) [Example 4, 3-(2-Chloropyridin-3-yloxymethyl)-2-azabicyclo[3.1.0]hexane dihydrochloride], in series [3] (iv, I.V), the AUC(0-t) turned out to be 4160 ± 878 ng·h/mL, the Cmax worked out at 2600 ± 42 ng/mL, the Tmax was 4.8 min and the half-life is 93 ± 15 min. Further, the bioavailability in series [3] (po) worked out at 54 ± 23%. In series [3] (po, P.O), the AUC(0-t) stood at 2160 ± 658 ng·h/mL, the Cmax is 921 ± 268 ng/mL, the Tmax worked out at 15 min and the half-life was 129 ± 30.6 min. Further, the Kp in series [4] was 3.6 ± 0.99. The Ki in series [2] (read-out: Ki) turned out to be 17.5 nM.

Turning to `Cl.Cl.Clc1ccc(OCC2CC3CC3N2)cn1` (centres unmarked) [Example 5, 3-(2-Chloropyridin-5-yloxymethyl)-2-azabicyclo[3.1.0]hexane dihydrochloride], in series [3] (iv, I.V), the exposure AUC(0-t) is 5380 ± 821 ng·h/mL, the maximum concentration (Cmax) worked out at 2720 ± 588 ng/mL, the Tmax came to 4.8 min and the half-life is 151 ± 25.8 min. The compound further had a bioavailability in series [3] (po) of 66 ± 12%. In series [3] (po, P.O), the AUC(0-t) was found to be 3510 ± 657 ng·h/mL, the highest concentration (Cmax) is 1910 ± 675 ng/mL, the Tmax turned out to be 15 min and the half-life was 200 ± 36 min. Also, the Kp in series [4] came out at 2.34 ± 0.25. Also, in series [2], the Ki was 1.5 nM.

Turning to `Cl.Cl.Fc1ccc(OCC2CC3CC3N2)cn1` (centres unmarked) [Example 6, 3-(2-Fluoropyridin-5-yloxymethyl)-2-azabicyclo[3.1.0]hexane dihydrochloride], the “Dose (reversal of formalin induced nociception)” value in series [5] is recorded as “≦30 mg/kg, p.o”. Besides, the Ki in series [2] (read-out: Ki) amounted to 3.9 nM.

Turning to `Brc1cncc(OCC2CC3CC3N2)c1` (centres unmarked) [Example 8, 3-(5-Bromopyridin-3-yloxymethyl)-2-azabicyclo[3.1.0]hexane tartrate], the Ki in series [2] (read-out: Ki) was 6.4 nM.

For `Fc1ncccc1OCC1CC2CC2N1` (centres unmarked) [Example 9, 3-(2-Fluoropyridin-3-yloxymethyl)-2-azabicyclo[3.1.0]hexane tartrate], in series [2] (read-out: Ki), the Ki is 17.4 nM.

On to `CN1C(COc2cccnc2F)CC2CC21` (centres unmarked) [Example 10, 3-(2-Fluoropyridin-3-yloxymethyl)-2-methyl-2-azabicyclo[3.1.0]hexane tartrate], for which the Ki in series [2] (read-out: Ki) was 31.9 nM.

For `CN1C(COc2cccnc2Cl)CC2CC21` (centres unmarked) [Example 11, 3-(2-Chloropyridin-3-yloxymethyl)-2-methyl-2-azabicyclo[3.1.0]hexane], the Kb in series [1] amounted to 13.5 nM. Besides, in series [2] (read-out: Ki), the Ki came to 28.1 nM.

Take `Cc1ncccc1OCC1CC2CC2N1C` (centres unmarked) [Example 12, 2-Methyl-3-(2-methylpyridin-3-yloxymethyl)-2-azabicyclo[3.1.0]hexane]: the Ki in series [2] (read-out: Ki) was found to be 231 nM.

For `Cc1ccc(OCC2CC3CC3N2C)cn1` (centres unmarked) [Example 13, 2-Methyl-3-(2-methylpyridin-5-yloxymethyl)-2-azabicyclo[3.1.0]hexane], the Kb in series [1] (setting [6]) came to 5 nM. For the same compound, in series [2], the Ki came out at 0.3 nM.

With `CN1C(COc2ccc(Cl)nc2)CC2CC21` (centres unmarked) [Example 14, 3-(2-Chloropyridin-5-yloxymethyl)-2-methyl-2-azabicyclo[3.1.0]hexane], the Ki in series [2] (read-out: Ki) is 3.4 nM.

Regarding `CN1C(COc2ccc(F)nc2)CC2CC21` (centres unmarked) [Example 15, 3-(2-Fluoropyridin-5-yloxymethyl)-2-methyl-2-azabicyclo[3.1.0]hexane], in series [2] (read-out: Ki), the Ki came to 1.1 nM.

`CN1C(COc2cncc(Cl)c2)CC2CC21` (centres unmarked) [Example 16, 3-(5-Chloropyridin-3-yloxymethyl)-2-methyl-2-azabicyclo[3.1.0]hexane]: the Kb in series [1] came to 0.4 nM. In addition, the Ki in series [2] (read-out: Ki) came out at 0.37 nM.

Regarding `CN1C(COc2cncc(Br)c2)CC2CC21` (centres unmarked) [Example 17, 3-(5-Bromopyridin-3-yloxymethyl)-2-methyl-2-azabicyclo[3.1.0]hexane dihydrochloride], in series [2] (read-out: Ki), the Ki was 4.2 nM.

Turning to `Cc1ccc(OCC2CC3CC3N2)cn1` (centres unmarked) [Example 18, 3-(2-Methylpyridin-5-yloxymethyl)-2-azabicyclo[3.1.0]hexane], in series [1] (setting [6]), the Kb stood at 22 nM. The Ki in series [2] was 26.1 nM.

On to `c1cncc(OCC2CCC3CC3N2)c1` (centres unmarked) [Example 19, 3-(Pyridin-3-yloxymethyl)-2-azabicyclo[4.1.0]heptane hydrochloride], for which the inhibition constant Ki in series [2] (read-out: Ki) amounted to 8.2 nM.

Turning to `Clc1cncc(OCC2CCC3CC3N2)c1` (centres unmarked) [Example 20, 3-(5-Chloropyridin-3-yloxymethyl)-2-azabicyclo[4.1.0]heptane hydrochloride], in series [2] (read-out: Ki), the Ki worked out at 216 nM.
